Laboratory results published in publication PMC6928678, “Simplified Head-to-Tail Cyclic Polypeptides as Biomaterial-Associated Antimicrobials with Endotoxin Neutralizing and Anti-Inflammatory Capabilities” (International Journal of Molecular Sciences, 2019).
Where a SMILES comes first, the peptide text is derived from it.

Columns and labels:
[1] = RP-HPLC used as measure of hydrophobicity; 4.6 mm × 250 mm Venusil MP C18-5 column, 220 nm, linear acetonitrile gradient 15% to 45% in 30 min, 0.1% trifluoroacetic acid, 1 mL/min
Text: In this experiment, cyclic, linear and D-proline antimicrobial peptides were designed based on the IR-rich template sequence (IR)nP(IR)nP (n = 1, 2 and 3). […] The […] molecular weights of the peptides were identified using mass spectrometry. […] The hydrophobicity of the peptides in solution is dependably mirrored by the HPLC retention times.

E. coli UB1005 = experiment: Outer membrane permeability assay (NPN uptake); assay type: cell-based; settings: E. coli UB1005, concentrations greater than 4 μM; relative to 10 μg/mL polymyxin B
Description: Figure 4 Outer membrane permeabilization assays of the engineered peptides. A 2 mL volume of E. coli UB1005 cells, diluted to 10^5 CFU/mL in 5 mM sodium HEPES buffer, was added to a quartz cuvette containing NPN to give a final concentration of 10 μM. Aliquots of peptides were added to the cuvette, and the fluorescence was recorded until there was no further increase in fluorescence. Data shown are three independent experiments.
The effect of antimicrobial peptides on the outer leaflet of the cell membrane was examined using the extracellular membrane-sensitive fluorescent dye NPN and the antibiotic-sensitive mutant E. coli UB 1005. […] The background fluorescence was measured (excitation λ = 350 nm, emission λ = 420 nm) with an F-4500 fluorescence spectrophotometer (Hitachi, Tokyo, Japan). […] The fluorescence was recorded in terms of the time needed until there was no further increase in fluorescence after mixing several concentrations (0.5–64 μM) of peptides. […] Values were converted to percent NPN uptake using the following equation:(3) %NPN uptake=Fobs−F0/F100−F0× 100% where Fobs is the observed fluorescence at a given peptide concentration, F0 is the initial fluorescence of NPN in E. coli UB1005 cells and F100 is the fluorescence of NPN in UB1005 cells upon the addition of 10 μg/mL polymyxin B, which had strong outer membrane permeability.

CC[C@H](C)[C@@H]1NC(=O)[C@H](CCCNC(=N)N)NC(=O)[C@H]([C@@H](C)CC)NC(=O)[C@@H]2CCCN2C(=O)[C@H](CCCNC(=N)N)NC(=O)[C@H]([C@@H](C)CC)NC(=O)[C@H](CCCNC(=N)N)NC(=O)[C@H]([C@@H](C)CC)NC(=O)[C@H](CCCNC(=N)N)NC(=O)[C@H]([C@@H](C)CC)NC(=O)[C@@H]2CCCN2C(=O)[C@H](CCCNC(=N)N)NC(=O)[C@H]([C@@H](C)CC)NC(=O)[C@H](CCCNC(=N)N)NC1=O [OIR3] (cyclo(IRIRIRPIRIRIRP))
RT (retention time) [1]: 12.64 min
outer membrane permeability (% NPN uptake) (E. coli UB1005): more than 70%
